In brackets after ≈: the same amount, converted by molar mass. Structures can show the parent of a compound that is named as a salt.
Key:
[1] = system: Mycobacterium tuberculosis; test: Antimycobacterial activity against Mycobacterium tuberculosis H37Rv assessed as growth inhibition after 45 days by Canetti proportional method; type: functional; settings: for MIC: Mycobacterium tuberculosis, H37Rv
[2] = system: Mycobacterium tuberculosis; test: Antimycobacterial activity against Mycobacterium tuberculosis; type: functional

| Structure (SMILES) | -logMIC [1] | MIC [1] | MIC [2] |
| --- | --- | --- | --- |
| CC(=O)Oc1ccccc1C(=O)N[C@@H]1[C@H]2CC[C@@](C)([C@@H]1O)C2(C)C | 6.523 | 0.3 µM (≈ 0.0994 µg/mL) | – |
| CC[C@H](C)[C@H](O)C(=O)N[C@@H]1[C@H]2CC[C@@](C)([C@@H]1O)C2(C)C | 5.151 | 7.06 µM (≈ 2 µg/mL) | – |
| CC(C)[C@H](O)C(=O)N[C@@H]1[C@H]2CC[C@@](C)([C@@H]1O)C2(C)C | 6.131 | 0.74 µM (≈ 0.199 µg/mL) | – |
| CSCC[C@H](O)C(=O)N[C@@H]1[C@H]2CC[C@@](C)([C@@H]1O)C2(C)C | 6.18 | 0.66 µM (≈ 0.199 µg/mL) | – |
| CC1(C)[C@@H]2CC[C@@]1(C)[C@H](O)[C@@H]2NC(=O)c1ccco1 | 6.42 | 0.38 µM (≈ 0.1 µg/mL) | – |
| CC[C@@H](CO)NCCN[C@@H](CC)CO [ETHAMBUTOL HYDROCHLORIDE] | – | 7.22 µM | – |
| CC[C@@H](CO)NCCN[C@@H](CC)CO [ETHAMBUTOL] | – | – | 10 µM (≈ 2.04 µg/mL) |
| CC1(C)[C@@H]2CC[C@@]1(C)[C@H](O)[C@@H]2NC(=O)CCc1ccccc1 | 6.481 | 0.33 µM (≈ 0.0995 µg/mL) | – |
| CC1(C)[C@@H]2CC[C@@]1(C)[C@H](O)[C@@H]2NC(=O)[C@@H](O)c1ccccc1 | 4.783 | 16.5 µM (≈ 5.01 µg/mL) | – |
| CCNC(=O)N[C@@H]1[C@H]2CC[C@@](C)([C@@H]1O)C2(C)C | 6.387 | 0.41 µM (≈ 0.0985 µg/mL) | – |
| CC1(C)[C@@H]2CC[C@@]1(C)[C@H](O)[C@@H]2NC(=O)[C@@H](O)Cc1ccccc1 | 5.201 | 6.3 µM (≈ 2 µg/mL) | – |
| CC1(C)[C@@H]2CC[C@@]1(C)[C@H](O)[C@@H]2NP(=O)(c1ccccc1)c1ccccc1 | 4.868 | 13.6 µM (≈ 5.01 µg/mL) | – |
| CC1(C)[C@@H]2CC[C@@]1(C)[C@H](O)[C@@H]2NC(=O)/C=C/c1ccccc1 | 6.481 | 0.33 µM (≈ 0.0988 µg/mL) | – |
| CC1(C)[C@@H]2CC[C@@]1(C)[C@H](O)[C@@H]2NC(=O)c1cccnc1 | 6.444 | 0.36 µM (≈ 0.0988 µg/mL) | – |
